Target: T1, catalytic domain of human PARP14 (residues 1611 to 1801) with NanoLuc tag (Homo sapiens, UniProt Q460N5)
T1 construct: expressed in transfected cells; host or cells: HEK-293T cells (ATCC), plasmid pRTX240 in pcDNA3.1(-)
T1 sequence (Q460N5 1611-1801): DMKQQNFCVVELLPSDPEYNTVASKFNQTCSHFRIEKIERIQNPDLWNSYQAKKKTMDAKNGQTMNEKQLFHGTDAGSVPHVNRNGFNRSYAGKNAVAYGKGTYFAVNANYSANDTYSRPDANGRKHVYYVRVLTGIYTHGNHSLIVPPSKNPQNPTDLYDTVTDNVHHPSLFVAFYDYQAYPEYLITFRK
Assay: NanoLuc assay for the degradation of PARP14
Type: cell-based
Conditions: Assay A; NanoLuc-PARP14 overexpressed in HEK-293T cells; 2 hours at 37 degrees; luminescence
Method: The catalytic domain of human PARP14 (residues 1611 to 1801, GenBank Accession No. NM_017554) was inserted into the pcDNA3.1(−) vector. The insert also contained a NanoLuc tag on the N terminus of the PARP14 protein.
Degradation of PARP14 protein was assessed using measurement of the NanoLuc tag as proxy for the PARP14 protein. PARP14 with NanoLuc tag was overexpressed in […] cells (ATCC) using the plasmid described in Table 1. Plasmid DNA was diluted in empty vector DNA then added to 1.163 mL of phenol red free OptiMEM (Thermo Fisher). Plasmid DNA concentrations used in each assay described in Table 1. The plasmid DNA was mixed with 78.5 μL of Fugene HD (Promega) and allowed to incubate 5 minutes.
Next, 1.125 mL were added to 10 million 293T cells in DMEM (Thermo Fisher) supplemented with 10% FBS (VWR) and 1× Glutamax (Gibco). The transfection was incubated for 24 hrs at 37 degrees in an incubator supplemented with 5% CO2. The cells were then trypsinized and brought up in phenol red free OptiMEM media. Transfected HEK-293T cells were diluted to […] and then added to assay plate (Corning 3574) using a Multidrop (Thermo Fisher) to add 40 μL per well of the 384 well plate, resulting in 5,000 cells per well. 40 nL of a dose response curve diluted in DMSO of each test compound was added to the cell plate using a Mosquito (TTP Labtech) and the plate was incubated at 37 degrees for 2 hours. Assay plate was brought to room temperature then 20 μL per well of NanoGlo (Promega) was added to the plate. Luminescence was measured on an Envision (Perkin Elmer).
The average DMSO was calculated from 32 wells containing 0.1% DMSO only in columns 12 and 24 of the assay plate. The % of DMSO values were calculated as described below: […]
The % of DMSO values were plotted as a function of compound concentration and the following 4-parameter fit was applied to derive the DC50 values:
where top, bottom, and Hill Coefficient are allowed to float. Y is the % of DMSO and X is the compound concentration.
DC50 data for the Example compounds is provided below in Table 2 (“+” is <0.1 μM; “++” is ≥0.1 μM and <1 μM; and “+++” is ≥1 μM).

Row | SMILES | DC50
1 | CC(=O)N1CCC(COc2cc(F)c3c(=O)[nH]c(CCC4CCN(CC(=O)N5CCC(CN6CCN(c7cccc8c7C(=O)N(C7CCC(=O)NC7=O)C8=O)CC6)CC5)CC4)nc3c2)CC1 (centres unmarked) [Example 27, 4-(4-((1-(2-(4-(2-(7-((1-acetylpiperidin-4-yl)methoxy)-5-fluoro-4-oxo-3,4-dihydroquinazolin-2-yl)ethyl)piperidin-1-yl)acetyl)piperidin-4-yl)methyl)piperazin-1-yl)-2-(2,6-dioxopiperidin-3-yl)isoindoline-1,3-dione] | < 100 nM
2 | CC(=O)N1CCC(COc2cc(F)c3c(=O)[nH]c(CSC4CCN(CC(=O)N5CCC(c6ccc(N7CCN(C8CCC(=O)NC8=O)C7=O)cc6)CC5)CC4)nc3c2)CC1 (centres unmarked) [Example 18, 3-(3-(4-(1-(2-(4-(((7-((1-acetylpiperidin-4-yl)methoxy)-5-fluoro-4-oxo-3,4-dihydroquinazolin-2-yl)methyl)thio)piperidin-1-yl)acetyl)piperidin-4-yl)phenyl)-2-oxoimidazolidin-1-yl)piperidine-2,6-dione] | < 100 nM
3 | CC(=O)N1CCC(COc2cc(F)c3c(=O)[nH]c(CSC4CCN(CC(=O)N5CCC(CN6CCN(c7ccc8c(c7)C(=O)N(C7CCC(=O)NC7=O)C8=O)CC6)CC5)CC4)nc3c2)CC1 (centres unmarked) [Example 28, 5-(4-((1-(2-(4-(((7-((1-acetylpiperidin-4-yl)methoxy)-5-fluoro-4-oxo-3,4-dihydroquinazolin-2-yl)methyl)thio)piperidin-1-yl)acetyl)piperidin-4-yl)methyl)piperazin-1-yl)-2-(2,6-dioxopiperidin-3-yl)isoindoline-1,3-dione] | < 100 nM
4 | CC(=O)N1CCC(COc2cc(F)c3c(=O)[nH]c(CSC4CCN(c5ccc6c(c5)C(=O)N(C5CCC(=O)NC5=O)C6=O)CC4)nc3c2)CC1 (centres unmarked) [Example 30, 5-(4-(((7-((1-acetylpiperidin-4-yl)methoxy)-5-fluoro-4-oxo-3,4-dihydroquinazolin-2-yl)methyl)thio)piperidin-1-yl)-2-(2,6-dioxopiperidin-3-yl)isoindoline-1,3-dione] | < 100 nM
5 | O=C1CCC(N2C(=O)c3ccc(N4CCN(CC5CCN(C(=O)CN6CCC(SCc7nc8cc(NC9CCCC9)cc(F)c8c(=O)[nH]7)CC6)CC5)CC4)cc3C2=O)C(=O)N1 (centres unmarked) [Example 29, 5-(4-((1-(2-(4-(((7-(cyclopentylamino)-5-fluoro-4-oxo-3,4-dihydroquinazolin-2-yl)methyl)thio)piperidin-1-yl)acetyl)piperidin-4-yl)methyl)piperazin-1-yl)-2-(2,6-dioxopiperidin-3-yl)isoindoline-1,3-dione] | < 100 nM

Other lines, results leading:

Row | DC50 | SMILES
6 | < 100 nM | CC(=O)N1CCC(COc2cc(F)c3c(=O)[nH]c(CSC4CCN(CC#Cc5ccc6c(c5)C(=O)N(C5CCC(=O)NC5=O)C6=O)CC4)nc3c2)CC1 (centres unmarked) [Example 34, 5-(3-(4-(((7-((1-acetylpiperidin-4-yl)methoxy)-5-fluoro-4-oxo-3,4-dihydroquinazolin-2-yl)methyl)thio)piperidin-1-yl)prop-1-yn-1-yl)-2-(2,6-dioxopiperidin-3-yl)isoindoline-1,3-dione]
7 | < 100 nM | CC(=O)N1CCC(COc2cc(F)c3c(=O)[nH]c(CSC4CCN(CC#Cc5ccc(N6CCC(=O)NC6=O)cc5)CC4)nc3c2)CC1 [Example 37, 1-(4-(3-(4-(((7-((1-acetylpiperidin-4-yl)methoxy)-5-fluoro-4-oxo-3,4-dihydroquinazolin-2-yl)methyl)thio)piperidin-1-yl)prop-1-yn-1-yl)phenyl)dihydropyrimidine-2,4(1H,3H)-dione]
8 | < 100 nM | CC(=O)N1CCC(COc2cc(F)c3c(=O)[nH]c(CSC4CCN(CC#Cc5cccc6c5n(C)c(=O)n6C5CCC(=O)NC5=O)CC4)nc3c2)CC1 (centres unmarked) [Example 35, 3-(4-(3-(4-(((7-((1-acetylpiperidin-4-yl)methoxy)-5-fluoro-4-oxo-3,4-dihydroquinazolin-2-yl)methyl)thio)piperidin-1-yl)prop-1-yn-1-yl)-3-methyl-2-oxo-2,3-dihydro-1H-benzo[d]imidazol-1-yl)piperidine-2,6-dione]

Reference: US20240051946A1, “TARGETED PROTEIN DEGRADATION OF PARP14 FOR USE IN THERAPY” (Ribon Therapeutics, Inc., priority 2022, published 2024)
